Measurements: patent US10435333B2, “High temperature amine-stabilized DCD and/or alkyl thiophosphoric triamide solvent systems and use in agricultural applications” (RHODIA OPERATIONS, priority 2015, dated 2019)

How the values were obtained:
[1] = cited from earlier work
[2] = visual physical stability of NBPT/DMSO formulation with 2 wt % amine stabilizer at high temperature (FIG. 1); assay type: physicochemical; conditions: 2 wt % amine stabilizer in NBPT/DMSO formulation, greater than 45° C.
Description: FIG. 1 is a photograph of Several amines or amides were tested to check if they can stabilize NBPT degradation at high temperatures (at greater than 45° C.) in NBPT/DMSO formulation. Each sample was prepared with 2% of amine stabilizer added.
Referring to FIG. 1, Several amines or amides were tested to check if they can stabilize NBPT degradation at high temperatures (at greater than 45° C.) in NBPT/DMSO formulation. Each sample was prepared with 2 wt % of amine stabilizer added.

[3] = degradation of NBPT at high temperature (colour change, sludge/precipitate); assay type: physicochemical
Description: Another problem is that certain nitrification inhibitors and/or urease inhibitors degrade at high temperatures. […] Often times temperatures in agricultural fields (e.g., corn fields, wheat fields, etc.) reach in excess of 35° C. and sometimes can reach up to 45° C. or higher. For example, at 45° C. […] Thus, it is also desirable to have solvent systems containing nitrification inhibitors and/or urease inhibitors that are stabilized at high temperatures, such as those unitized in hot climates or weather. This invention addresses the addition of stabilizers to prolong the chemical and physical stability of formulated liquid agricultural compositions containing (i) one or more nitrification inhibitors, (ii) one or more urease inhibitors or (iii) a combination of both (i) and (ii). In one embodiment, the urease inhibitor is NBPT.

## N#CNC(=N)N [Dicyandiamide, 2-cyanoguanidine]
[1]
  solubility in water: about 41 g/l

## NCCO [monoethanolamine]
[2]
  physical stability by visual observation (appearance): better physical stability (less dark appearance)

## CCCCNP(N)(N)=S [NBPT, N-(n-butyl)-thiophosphoric triamide]
[3]; 45° C., NBPT formulated in different solvents, days to weeks
  appearance after exposure to high heat: changes color in days from colorless to a darker green/brown, followed by sludge/precipitate formation after weeks
[3]; typically above 45° C.
  degradation at higher temperature: degrades rapidly
